Reference: patent publication US8247211B2, “Glycopeptide antibiotics” (American Cyanamid Company, priority 2001, dated 2012)
Values after ≈ are worked out from the molar mass of the structure shown.

Legend:
Assay in all cases: In vitro antibacterial evaluation: minimum inhibitory concentration (MIC), broth dilution method
Format in all cases: cell-based
Streptococcus sp. = tested on: Streptococcus sp.
Summary of the method: (§1)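 Susceptibility determined by NCCLS-recommended broth dilution (M7-A2), Muller-Hinton II […]. Concentration span 64-0.06 μg/mL, inoculum 5×10^5 CFU/mL. Isolates include strains resistant to methicillin, penicillin and/or vancomycin.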

Enterococcus sp. = tested on: Enterococcus sp.
Summary of the method: as §1

Staphylococcus sp. = details: broth dilution, 18 hours at 35° C.
Summary of the method: as §1

Escherichia coli = tested on: Escherichia coli
Summary of the method: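 Using Muller-Hinton II […] and an inoculum of 5×10^5 CFU/mL, antibiotic dilutions from 64 down to 0.06 μg/mL were tested following NCCLS M7-A2. The MIC is the lowest concentration inhibiting growth, including in methicillin-, penicillin- or vancomycin-resistant clinical isolates.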

## COc1cc(C2OCC3OC(OC4C(CO)OC(Oc5ccc(CC6NC(=O)C(C(C)c7ccccc7)NC(=O)CNC(=O)C(CO)NC(=O)C(C(O)C7CNC(=N)N7C7OC(CO)C(O)C(O)C7O)NC(=O)C(C(O)C7CNC(=N)N7)NC6=O)cc5)C(O)C4O)C(O)C(O)C3O2)ccc1[N+](=O)[O-] (stereo not drawn) [Example 153, Cyclo[glycyl-β-methylphenylalanyl-O-[4-O-[4,6-O-(3-methoxy-4-nitrobenzylidene)hexopyranosyl]hexopyranosyl]tyrosyl-3-(2-iminoimidazolidin-4-yl)seryl-3-(3-hexopyranosyl-2-iminoimidazolidin-4-yl)serylseryl]]
Streptococcus sp.; strain ATCC 6301
  MIC Streptococcus pneumoniae (ATCC 6301): <0.06 µg/mL
Streptococcus sp.; strain GC 1894
  MIC Streptococcus pneumoniae (GC 1894): <0.06 µg/mL
Streptococcus sp.; strain GC 4563
  MIC Streptococcus pyogenes (GC 4563): 0.25 µg/mL (≈ 0.171 µM)
Streptococcus sp.; strain GC 4564
  MIC Streptococcus agalactiae (GC 4564): 0.5 µg/mL (≈ 0.343 µM)
Streptococcus sp.; strain GC 4565
  MIC Streptococcus pneumoniae (GC 4565): <0.06 µg/mL
Enterococcus sp.; strain ATCC 29212
  MIC Enterococcus faecalis (ATCC 29212): 8 µg/mL (≈ 5.49 µM)
Enterococcus sp.; strain GC 2242
  MIC Enterococcus faecalis (GC 2242): 4 µg/mL (≈ 2.74 µM)
Enterococcus sp.; strain GC 2243
  MIC Enterococcus faecium (GC 2243): 4 µg/mL (≈ 2.74 µM)
Enterococcus sp.; strain GC 2691
  MIC Enterococcus faecalis (GC 2691): 8 µg/mL (≈ 5.49 µM)
Enterococcus sp.; strain GC 3059
  MIC Enterococcus faecalis (GC 3059): 8 µg/mL (≈ 5.49 µM)
Enterococcus sp.; strain GC 4552
  MIC Enterococcus faecalis (GC 4552): 8 µg/mL (≈ 5.49 µM)
Enterococcus sp.; strain GC 4553
  MIC Enterococcus faecalis (GC 4553): 8 µg/mL (≈ 5.49 µM)
Enterococcus sp.; strain GC 4554
  MIC Enterococcus faecalis (GC 4554): 8 µg/mL (≈ 5.49 µM)
Enterococcus sp.; strain GC 4556
  MIC Enterococcus faecium (GC 4556): 4 µg/mL (≈ 2.74 µM)
Enterococcus sp.; strain GC 4557
  MIC Enterococcus faecium (GC 4557): 2 µg/mL (≈ 1.37 µM)
Enterococcus sp.; strain GC 4558
  MIC Enterococcus avium (GC 4558): 8 µg/mL (≈ 5.49 µM)
Enterococcus sp.; strain GC 6189
  MIC Enterococcus faecalis (GC 6189): 4 µg/mL (≈ 2.74 µM)
Staphylococcus sp.; 5×10^5 CFU/mL
  MIC Coagulase Negative Staphylococcus (GC 4547): 1 µg/mL (≈ 0.686 µM)
  MIC Coagulase Negative Staphylococcus (GC 4548): 0.5 µg/mL (≈ 0.343 µM)
  MIC Coagulase Negative Staphylococcus (GC 4549): 0.5 µg/mL (≈ 0.343 µM)
  MIC Coagulase Negative Staphylococcus (GC 4551): 2 µg/mL (≈ 1.37 µM)
  MIC Coagulase Negative Staphylococcus (GC 6257): 0.5 µg/mL (≈ 0.343 µM)
  MIC Staphylococcus aureus (ATCC 29213): 2 µg/mL (≈ 1.37 µM)
  MIC Staphylococcus aureus (GC 1131): 2 µg/mL (≈ 1.37 µM)
  MIC Staphylococcus aureus (GC 3051): 2 µg/mL (≈ 1.37 µM)
  MIC Staphylococcus aureus (GC 3053): 4 µg/mL (≈ 2.74 µM)
  MIC Staphylococcus aureus (GC 4541): 2 µg/mL (≈ 1.37 µM)
  MIC Staphylococcus aureus (GC 4542): 2 µg/mL (≈ 1.37 µM)
  MIC Staphylococcus aureus (GC 4544): 2 µg/mL (≈ 1.37 µM)
  MIC Staphylococcus aureus (GC 4545): 2 µg/mL (≈ 1.37 µM)
  MIC Staphylococcus aureus-SMITH (GC 4543): 1 µg/mL (≈ 0.686 µM)
  MIC Staphylococcus haemolyticus (GC 4546): 1 µg/mL (≈ 0.686 µM)
Staphylococcus sp.; strain ATCC 29213
  MIC Staphylococcus aureus (ATCC 29213): 2 µg/mL (≈ 1.37 µM)
Staphylococcus sp.; strain GC 1131
  MIC Staphylococcus aureus (GC 1131): 2 µg/mL (≈ 1.37 µM)
Staphylococcus sp.; strain GC 3051
  MIC Staphylococcus aureus (GC 3051): 2 µg/mL (≈ 1.37 µM)
Staphylococcus sp.; strain GC 3053
  MIC Staphylococcus aureus (GC 3053): 4 µg/mL (≈ 2.74 µM)
Staphylococcus sp.; strain GC 4541
  MIC Staphylococcus aureus (GC 4541): 2 µg/mL (≈ 1.37 µM)
Staphylococcus sp.; strain GC 4542
  MIC Staphylococcus aureus (GC 4542): 2 µg/mL (≈ 1.37 µM)
Staphylococcus sp.; strain GC 4543
  MIC Staphylococcus aureus-SMITH (GC 4543): 1 µg/mL (≈ 0.686 µM)
Staphylococcus sp.; strain GC 4544
  MIC Staphylococcus aureus (GC 4544): 2 µg/mL (≈ 1.37 µM)
Staphylococcus sp.; strain GC 4545
  MIC Staphylococcus aureus (GC 4545): 2 µg/mL (≈ 1.37 µM)
Staphylococcus sp.; strain GC 4546
  MIC Staphylococcus haemolyticus (GC 4546): 1 µg/mL (≈ 0.686 µM)
Staphylococcus sp.; strain GC 4547
  MIC Coagulase Negative Staphylococcus (GC 4547): 1 µg/mL (≈ 0.686 µM)
Staphylococcus sp.; strain GC 4548
  MIC Coagulase Negative Staphylococcus (GC 4548): 0.5 µg/mL (≈ 0.343 µM)
Staphylococcus sp.; strain GC 4549
  MIC Coagulase Negative Staphylococcus (GC 4549): 0.5 µg/mL (≈ 0.343 µM)
Staphylococcus sp.; strain GC 4551
  MIC Coagulase Negative Staphylococcus (GC 4551): 2 µg/mL (≈ 1.37 µM)
Staphylococcus sp.; strain GC 6257
  MIC Coagulase Negative Staphylococcus (GC 6257): 0.5 µg/mL (≈ 0.343 µM)
Escherichia coli; strain ATCC 25922
  MIC Escherichia coli (ATCC 25922): 64 µg/mL (≈ 43.9 µM)
Escherichia coli; strain GC 4559
  MIC Escherichia coli (GC 4559): 64 µg/mL (≈ 43.9 µM)
